Test system: MV-4-11 cells
Assay: Gene expression microarray analysis (Affymetrix PrimeView) and GSEA
Assay type: cell-based, human
Design: RFU PODN (11730768_x_at) / Fold change /veh PODN (11730768_x_at) / RFU LINC00158 (11744669_a_at) / Fold change /veh LINC00158 (11744669_a_at) / RFU DUSP10 (11751237_a_at) / Fold change /veh DUSP10 (11751237_a_at) / RFU ID3 (11757404_x_at) / Fold change /veh ID3 (11757404_x_at) / RFU PLEKHG5 (11737974_s_at) / Fold change /veh PLEKHG5 (11737974_s_at) / RFU LRRC4B (11730491_at) / Fold change /veh LRRC4B (11730491_at) / RFU GIMAP4 (11747438_a_at) / Fold change /veh GIMAP4 (11747438_a_at) / RFU KRT8 (11758183_x_at) / Fold change /veh KRT8 (11758183_x_at) / RFU CNN1 (11734310_a_at) / Fold change /veh CNN1 (11734310_a_at) / RFU VPS37D (11726825_at) / Fold change /veh VPS37D (11726825_at) / RFU C10orf10 (11716522_x_at) / Fold change /veh C10orf10 (11716522_x_at) / RFU KIR2DL2 /// KIR2DL4 /// KIR2DL5A /// KIR2DL5B /// KIR2DS1 /// KIR2DS2 /// KIR2DS3 /// KIR2DS4 /// KIR3DL3 /// KIR3DL3 /// KIR3DS1 (11738374_at) / Fold change /veh KIR2DL2 /// KIR2DL4 /// KIR2DL5A /// KIR2DL5B /// KIR2DS1 /// KIR2DS2 /// KIR2DS3 /// KIR2DS4 /// KIR3DL3 /// KIR3DL3 /// KIR3DS1 (11738374_at) / RFU C1QL1 (11718748_at) / Fold change /veh C1QL1 (11718748_at) / RFU TMPRSS4 (11747572_a_at) / Fold change /veh TMPRSS4 (11747572_a_at) / RFU HAMP (11756126_x_at) / Fold change /veh HAMP (11756126_x_at) / RFU RNFT2 (11725882_a_at) / Fold change /veh RNFT2 (11725882_a_at) / RFU NR4A2 (11747474_a_at) / Fold change /veh NR4A2 (11747474_a_at) / RFU ABCC12 (11746883_a_at) / Fold change /veh ABCC12 (11746883_a_at) / RFU TMEM136 (11760407_x_at) / Fold change /veh TMEM136 (11760407_x_at) / RFU CLDN22 /// WWC2 (11732394_at) / Fold change /veh CLDN22 /// WWC2 (11732394_at) / RFU HLA-DPB1 (11760878_x_at) / Fold change /veh HLA-DPB1 (11760878_x_at) / RFU SPINT1 (11716480_a_at) / Fold change /veh SPINT1 (11716480_a_at) / RFU GAP43 (11754022_s_at) / Fold change /veh GAP43 (11754022_s_at) / RFU A4GNT (11735810_at) / Fold change /veh A4GNT (11735810_at) / RFU PRB3 (11715151_x_at) / Fold change /veh PRB3 (11715151_x_at) / RFU TUBB4B (11761932_at) / Fold change /veh TUBB4B (11761932_at) / RFU CAPN14 (11732068_a_at) / Fold change /veh CAPN14 (11732068_a_at) / RFU TMCC2 (11721928_a_at) / Fold change /veh TMCC2 (11721928_a_at) / RFU IRGQ (11745062_a_at) / Fold change /veh IRGQ (11745062_a_at) / RFU FAM174B (11720279_a_at) / Fold change /veh FAM174B (11720279_a_at) / RFU TMPRSS4 (11748680_a_at) / Fold change /veh TMPRSS4 (11748680_a_at) / RFU FAM212B (11763350_a_at) / Fold change /veh FAM212B (11763350_a_at) / RFU PLEKHG5 (11743358_a_at) / Fold change /veh PLEKHG5 (11743358_a_at) / RFU ZSCAN30 (11745921_a_at) / Fold change /veh ZSCAN30 (11745921_a_at) / RFU CMKLR1 (11741424_a_at) / Fold change /veh CMKLR1 (11741424_a_at) / RFU LOC101060620 /// MAPK8IP1 (11723275_at) / Fold change /veh LOC101060620 /// MAPK8IP1 (11723275_at) / RFU SPTSSB (11747773_x_at) / Fold change /veh SPTSSB (11747773_x_at) / RFU PRSS12 (11739890_at) / Fold change /veh PRSS12 (11739890_at) / RFU BIN1 (11741810_x_at) / Fold change /veh BIN1 (11741810_x_at) / RFU WNT11 (11732464_a_at) / Fold change /veh WNT11 (11732464_a_at) / RFU C10orf10 (11716521_a_at) / Fold change /veh C10orf10 (11716521_a_at) / RFU C5orf56 (11738089_at) / Fold change /veh C5orf56 (11738089_at) / RFU CYB561 (11721691_x_at) / Fold change /veh CYB561 (11721691_x_at) / RFU ANKRD19P (11752326_a_at) / Fold change /veh ANKRD19P (11752326_a_at) / RFU OR2T12 /// OR2T33 /// OR2T8 (11738714_s_at) / Fold change /veh OR2T12 /// OR2T33 /// OR2T8 (11738714_s_at) / RFU VCAN (11748164_a_at) / Fold change /veh VCAN (11748164_a_at) / RFU JSRP1 (11732532_at) / Fold change /veh JSRP1 (11732532_at) / RFU KRTAP10-11 (11738290_x_at) / Fold change /veh KRTAP10-11 (11738290_x_at) / RFU MYO3A (11730013_a_at) / Fold change /veh MYO3A (11730013_a_at) / RFU EBF3 (11725865_a_at) / Fold change /veh EBF3 (11725865_a_at) / RFU CAMK2N1 (11719241_x_at) / Fold change /veh CAMK2N1 (11719241_x_at) / RFU C5orf56 (11738088_a_at) / Fold change /veh C5orf56 (11738088_a_at) / RFU OLFML3 (11715873_a_at) / Fold change /veh OLFML3 (11715873_a_at) / RFU LOC100653217 /// NTM (11731650_a_at) / Fold change /veh LOC100653217 /// NTM (11731650_a_at) / RFU MAPK11 (11762145_a_at) / Fold change /veh MAPK11 (11762145_a_at) / RFU FIZ1 (11724087_x_at) / Fold change /veh FIZ1 (11724087_x_at) / RFU OASL (11726364_x_at) / Fold change /veh OASL (11726364_x_at) / RFU SOX15 (11748057_x_at) / Fold change /veh SOX15 (11748057_x_at) / RFU CD79A (11719716_a_at) / Fold change /veh CD79A (11719716_a_at) / RFU HIST1H1D (11736915_at) / Fold change /veh HIST1H1D (11736915_at) / RFU CASKIN2 (11723855_a_at) / Fold change /veh CASKIN2 (11723855_a_at) / RFU LOC730098 (11760151_x_at) / Fold change /veh LOC730098 (11760151_x_at) / RFU OR4N2 (11742367_at) / Fold change /veh OR4N2 (11742367_at) / RFU PRRT2 (11749266_a_at) / Fold change /veh PRRT2 (11749266_a_at) / RFU SNX32 (11753110_a_at) / Fold change /veh SNX32 (11753110_a_at) / RFU CDHR5 (11726645_a_at) / Fold change /veh CDHR5 (11726645_a_at) / RFU RCAN1 (11760418_a_at) / Fold change /veh RCAN1 (11760418_a_at) / RFU FAM167A (11723789_a_at) / Fold change /veh FAM167A (11723789_a_at) / RFU FAM26E (11764081_at) / Fold change /veh FAM26E (11764081_at) / RFU ISYNA1 (11749810_s_at) / Fold change /veh ISYNA1 (11749810_s_at) / RFU ACY1 (11761880_at) / Fold change /veh ACY1 (11761880_at) / RFU 11764098_at / Fold change /veh 11764098_at / RFU SAMD14 (11745864_x_at) / Fold change /veh SAMD14 (11745864_x_at) / RFU NPB (11741838_a_at) / Fold change /veh NPB (11741838_a_at) / RFU TMPRSS6 (11731388_a_at) / Fold change /veh TMPRSS6 (11731388_a_at) / RFU KRTAP10-2 (11738614_at) / Fold change /veh KRTAP10-2 (11738614_at) / RFU ARHGAP8 /// PRR5-ARHGAP8 (11727945_x_at) / Fold change /veh ARHGAP8 /// PRR5-ARHGAP8 (11727945_x_at) / RFU KRTAP5-7 /// NADSYN1 (11734609_at) / Fold change /veh KRTAP5-7 /// NADSYN1 (11734609_at) / RFU RASL12 (11751679_a_at) / Fold change /veh RASL12 (11751679_a_at) / RFU CDKN2B (11736163_a_at) / Fold change /veh CDKN2B (11736163_a_at) / RFU PRF1 (11729649_at) / Fold change /veh PRF1 (11729649_at) / RFU, ZNF638 /// ZNF638-IT1 / Fold change vs veh, ZNF638 /// ZNF638-IT1 / RFU, PANK3 / Fold change vs veh, PANK3 / RFU, SH3YL1 / Fold change vs veh, SH3YL1 / RFU, ZEB2 / Fold change vs veh, ZEB2 / RFU, NRIP1 / Fold change vs veh, NRIP1 / RFU, PTTG1IP / Fold change vs veh, PTTG1IP / RFU, CAPN2 / Fold change vs veh, CAPN2 / RFU, MED14 / Fold change vs veh, MED14 / RFU, SNORA58 / Fold change vs veh, SNORA58 / RFU, C1orf63 / Fold change vs veh, C1orf63 / RFU, LRRFIP1 / Fold change vs veh, LRRFIP1 / RFU, NDUFAF7 / Fold change vs veh, NDUFAF7 / RFU, SLC12A2 / Fold change vs veh, SLC12A2 / RFU, IBTK / Fold change vs veh, IBTK / RFU, ESF1 / Fold change vs veh, ESF1 / Fold change vs veh, TMEM50B / RFU, TAOK1 / Fold change vs veh, TAOK1 / RFU, ACBD3 / Fold change vs veh, ACBD3 / RFU, TMA16 / Fold change vs veh, TMA16 / RFU, RWDD3 / Fold change vs veh, RWDD3 / RFU, BCAT1 / Fold change vs veh, BCAT1 / RFU, EDEM3 / Fold change vs veh, EDEM3 / RFU, TMEM33 / Fold change vs veh, TMEM33 / RFU, WDR75 / Fold change vs veh, WDR75 / RFU, AHCTF1 / Fold change vs veh, AHCTF1 / RFU, TFRC / Fold change vs veh, TFRC / RFU, ZDHHC17 / Fold change vs veh, ZDHHC17 / RFU, NOM1 / Fold change vs veh, NOM1 / RFU, ARL8B / Fold change vs veh, ARL8B / RFU, ZBTB11 / Fold change vs veh, ZBTB11 / RFU, TAMM41 / Fold change vs veh, TAMM41 / RFU, KIAA1704 /// LOC100996395 / Fold change vs veh, KIAA1704 /// LOC100996395 / RFU, ING1 / Fold change vs veh, ING1 / RFU, TRMT61B / Fold change vs veh, TRMT61B / RFU, FUBP3 / Fold change vs veh, FUBP3 / RFU, TP53 / Fold change vs veh, TP53 / RFU, TNKS2 / Fold change vs veh, TNKS2 / RFU, ZFP14 / Fold change vs veh, ZFP14 / RFU, ACTR2 / Fold change vs veh, ACTR2 / RFU, PPP3R1 / Fold change vs veh, PPP3R1 / RFU, PIK3R1 / Fold change vs veh, PIK3R1 / RFU, HNRNPA1 / Fold change vs veh, HNRNPA1 / RFU, RNF170 / Fold change vs veh, RNF170 / RFU, ZNF28 / Fold change vs veh, ZNF28 / RFU, RNGTT / Fold change vs veh, RNGTT / RFU, OGT / Fold change vs veh, OGT / RFU, BRD1 / Fold change vs veh, BRD1 / RFU, MARS / Fold change vs veh, MARS / RFU, ZNF655 / Fold change vs veh, ZNF655 / RFU, FAHD1 / Fold change vs veh, FAHD1 / RFU, BDP1 / Fold change vs veh, BDP1 / RFU, LRRCC1 / Fold change vs veh, LRRCC1 / RFU, ARID1A / Fold change vs veh, ARID1A / RFU, ZNF146 / Fold change vs veh, ZNF146 / RFU, ZNF330 / Fold change vs veh, ZNF330 / RFU, GPN3 / Fold change vs veh, GPN3 / RFU, C9orf123 / Fold change vs veh, C9orf123 / RFU, N4BP2L2 / Fold change vs veh, N4BP2L2 / RFU, ARFIP1 / Fold change vs veh, ARFIP1 / RFU, FAM179B / Fold change vs veh, FAM179B / RFU, BCL10 / Fold change vs veh, BCL10 / RFU, UHRF1BP1L / Fold change vs veh, UHRF1BP1L / RFU, BET1 / Fold change vs veh, BET1 / RFU, CNOT2 / Fold change vs veh, CNOT2 / RFU, ZNF268 / Fold change vs veh, ZNF268 / Fold change vs veh, ZNF507 / RFU, DGCR2 / Fold change vs veh, DGCR2 / RFU, WDSUB1 / Fold change vs veh, WDSUB1 / Fold change vs veh, HSP90B1 /// MIR3652 / RFU, ADSS / Fold change vs veh, ADSS / RFU, GK / Fold change vs veh, GK / RFU, ZNF148 / Fold change vs veh, ZNF148 / RFU, TAF9 / Fold change vs veh, TAF9 / RFU, SLC1A5 / Fold change vs veh, SLC1A5 / RFU, SLMO2 / Fold change vs veh, SLMO2 / RFU, ABCC4 / Fold change vs veh, ABCC4 / RFU, LOC101060439 /// RAP1B / Fold change vs veh, LOC101060439 /// RAP1B / RFU, RFX7 / Fold change vs veh, RFX7 / RFU, GTPBP10 / Fold change vs veh, GTPBP10 / RFU, CNEP1R1 / Fold change vs veh, CNEP1R1 / RFU, BIVM-ERCC5 /// ERCC5 / Fold change vs veh, BIVM-ERCC5 /// ERCC5 / RFU, ILF3 / Fold change vs veh, ILF3 / RFU 11762660_at / Fold change /veh 11762660_at / RFU VCAN (11757783_s_at) / Fold change /veh VCAN (11757783_s_at) / RFU DDX43 (11728927_at) / Fold change /veh DDX43 (11728927_at) / RFU KRT8 (11758188_x_at) / Fold change /veh KRT8 (11758188_x_at) / RFU NKD1 (11759106_at) / Fold change /veh NKD1 (11759106_at) / RFU SRD5A1 (11742802_a_at) / Fold change /veh SRD5A1 (11742802_a_at) / RFU TPSAB1 /// TPSB2 (11721975_s_at) / Fold change /veh TPSAB1 /// TPSB2 (11721975_s_at) / RFU GSTM3 (11746129_a_at) / Fold change /veh GSTM3 (11746129_a_at) / RFU IL23R (11737362_x_at) / Fold change /veh IL23R (11737362_x_at) / RFU TMEM51 (11727254_a_at) / Fold change /veh TMEM51 (11727254_a_at) / RFU PIWIL2 (11732686_x_at) / Fold change /veh PIWIL2 (11732686_x_at) / RFU ORM1 (11744905_x_at) / Fold change /veh ORM1 (11744905_x_at) / RFU CCDC152 (11743942_at) / Fold change /veh CCDC152 (11743942_at) / RFU ECM1 (11717891_a_at) / Fold change /veh ECM1 (11717891_a_at) / RFU IL23R (11748794_a_at) / Fold change /veh IL23R (11748794_a_at) / RFU TNFAIP8L3 (11732012_x_at) / Fold change /veh TNFAIP8L3 (11732012_x_at) / RFU MBOAT4 (11741988_at) / Fold change /veh MBOAT4 (11741988_at) / RFU 11764193_at / Fold change /veh 11764193_at / RFU TMEM53 (11763286_at) / Fold change /veh TMEM53 (11763286_at) / RFU MAGEB2 (11727129_at) / Fold change /veh MAGEB2 (11727129_at) / RFU TMEM200A (11744735_a_at) / Fold change /veh TMEM200A (11744735_a_at) / RFU CCDC152 (11751479_a_at) / Fold change /veh CCDC152 (11751479_a_at) / RFU FAM211A (11726209_a_at) / Fold change /veh FAM211A (11726209_a_at) / RFU RGS16 (11746705_a_at) / Fold change /veh RGS16 (11746705_a_at) / RFU VCAN (11755009_s_at) / Fold change /veh VCAN (11755009_s_at) / RFU RHOB (11743442_s_at) / Fold change /veh RHOB (11743442_s_at) / RFU RGS16 (11720943_a_at) / Fold change /veh RGS16 (11720943_a_at) / RFU RGS16 (11720944_at) / Fold change /veh RGS16 (11720944_at) / RFU, VPS4B / Fold change vs veh, VPS4B / RFU, CREB1 / Fold change vs veh, CREB1 / RFU, DNAJC13 / Fold change vs veh, DNAJC13 / RFU, GNAQ / Fold change vs veh, GNAQ / RFU, CDK5R1 / Fold change vs veh, CDK5R1 / RFU, ZRANB3 / Fold change vs veh, ZRANB3 / RFU, CUL4A / Fold change vs veh, CUL4A / RFU, CCNY / Fold change vs veh, CCNY / RFU, UFL1 / Fold change vs veh, UFL1 / RFU, COG3 / Fold change vs veh, COG3 / RFU, DIAPH2 / Fold change vs veh, DIAPH2 / RFU, SKA2 / Fold change vs veh, SKA2 / RFU, AFF3 / Fold change vs veh, AFF3 / RFU, LMF1 / Fold change vs veh, LMF1 / RFU, IPO11 / Fold change vs veh, IPO11 / RFU, DFFB / Fold change vs veh, DFFB / RFU, FOXP1 / Fold change vs veh, FOXP1 / RFU, CARD8 / Fold change vs veh, CARD8 / RFU, STRN3 / Fold change vs veh, STRN3 / RFU, ADK / Fold change vs veh, ADK / RFU, RASSF2 / Fold change vs veh, RASSF2 / RFU, WIPF1 / Fold change vs veh, WIPF1 / RFU, LARP1B / Fold change vs veh, LARP1B / RFU, RASA1 / Fold change vs veh, RASA1 / RFU, RB1 / Fold change vs veh, RB1 / RFU, PPFIA1 / Fold change vs veh, PPFIA1 / RFU, MAT2A / Fold change vs veh, MAT2A / RFU, CCT5 / Fold change vs veh, CCT5 / RFU, WDR92 / Fold change vs veh, WDR92 / RFU, CUX1 / Fold change vs veh, CUX1 / RFU, TTC7A / Fold change vs veh, TTC7A / RFU, TMEM135 / Fold change vs veh, TMEM135 / RFU, DEPTOR / Fold change vs veh, DEPTOR / RFU, CPM / Fold change vs veh, CPM / RFU, DNAJB6 / Fold change vs veh, DNAJB6 / RFU, CACNA2D3 / Fold change vs veh, CACNA2D3 / RFU, DTX4 / Fold change vs veh, DTX4 / RFU, TFCP2 / Fold change vs veh, TFCP2 / RFU, GMCL1 /// GMCL1P1 / Fold change vs veh, GMCL1 /// GMCL1P1 / RFU, AEBP2 / Fold change vs veh, AEBP2 / RFU, SNHG1 /// SNORD22 /// SNORD25 /// SNORD26 /// SNORD27 /// SNORD28 /// SNORD29 /// SNORD31 / Fold change vs veh, SNHG1 /// SNORD22 /// SNORD25 /// SNORD26 /// SNORD27 /// SNORD28 /// SNORD29 /// SNORD31 / Fold change (Aza/veh), C12orf56 (ProbeSet 11735607_a_at) / Fold change (ACY-1035/veh), C12orf56 (ProbeSet 11735607_a_at) / Fold change (Aza/veh), FGFR1OP (ProbeSet 11751329_s_at) / Fold change (ACY-1035/veh), FGFR1OP (ProbeSet 11751329_s_at) / Fold change (Aza/veh), VPS36 (ProbeSet 11739960_a_at) / Fold change (ACY-1035/veh), VPS36 (ProbeSet 11739960_a_at) / RFU SYPL1 (11715823_x_at) / Fold change /veh SYPL1 (11715823_x_at) / RFU IGFBP7 (11715501_s_at) / Fold change /veh IGFBP7 (11715501_s_at) / RFU REEP3 (11722064_at) / Fold change /veh REEP3 (11722064_at) / RFU IGLL1 (11728026_x_at) / Fold change /veh IGLL1 (11728026_x_at): dose or concentration left out as unconfirmed
Conditions: ProbeSet 11722302_a_at; LIST B

## Nc1ncn([C@@H]2O[C@H](CO)[C@@H](O)[C@H]2O)c(=O)n1 [azacitidine]
  Fold change vs veh, LRRFIP1: 0.89
